Measured values reported in patent US20240182406A1, “COMPOUNDS AS SOLUBLE EPOXIDE HYDROLASE INHIBITORS” (UNIVERSITAT DE BARCELONA, priority 2021, published 2024).
Marks after values point to notes of the source that are not given here.

Experiments:
human sEH = human sEH (Homo sapiens (Human), UniProt P34913); assay: In vitro determination of sEH inhibition activity (fluorescent assay, CMNPC substrate); format: biochemical; conditions: purified recombinant human sEH, CMNPC 5 μM, 30° C., mean of triplicate
human sEH, sequence (P34913 whole entry): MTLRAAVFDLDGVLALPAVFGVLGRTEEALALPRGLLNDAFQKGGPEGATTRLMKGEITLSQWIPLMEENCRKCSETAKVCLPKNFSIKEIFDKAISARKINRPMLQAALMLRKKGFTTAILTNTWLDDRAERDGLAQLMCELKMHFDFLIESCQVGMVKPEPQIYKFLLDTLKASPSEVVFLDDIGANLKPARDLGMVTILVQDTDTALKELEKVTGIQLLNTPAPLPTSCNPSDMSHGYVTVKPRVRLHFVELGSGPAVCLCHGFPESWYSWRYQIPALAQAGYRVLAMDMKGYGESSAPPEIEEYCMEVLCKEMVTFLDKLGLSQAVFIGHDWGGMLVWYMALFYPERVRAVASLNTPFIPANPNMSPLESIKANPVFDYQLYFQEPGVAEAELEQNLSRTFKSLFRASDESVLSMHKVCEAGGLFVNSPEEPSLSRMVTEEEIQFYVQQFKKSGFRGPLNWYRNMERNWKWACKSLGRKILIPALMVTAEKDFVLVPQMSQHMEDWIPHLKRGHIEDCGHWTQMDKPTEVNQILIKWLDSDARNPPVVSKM
Method: Cyano(6-methoxynaphthalen-2-yl)methyl 2-(3-phenyloxiran-2-yl)methylcarbonate (CMNPC); cf. Morisseau, C.; Hammock, B. D. Measurement of soluble epoxide hydrolase (sEH) activity. Curr. Protoc. Toxicol.
The fluorescent assay was used with purified recombinant human or mouse sEH proteins. The enzymes were incubated at 30° C. with the inhibitors ([I]final=0.4-100,000 nM) for 5 min in 100 mM sodium phosphate buffer (200 μL, pH 7.4) containing 0.1 mg/mL of BSA and 1% of DMSO. The substrate (CMNPC) was then added ([S]final=5 μM). […] Results were obtained by regression analysis from a linear region of the curve.

[1] = In vitro determination of microsomal stability; format: in vitro ADME; conditions: human microsomes, 37° C., samples at 0-60 min
Method: The human recombinant microsomes employed were purchased from Tebu-Xenotech. […] Samples (75 μL) were taken from each well at 0, 10, 20, 40 and 60 min and transferred to a plate containing 4° C. 75 μL acetonitrile and 30 μL of 0.5% formic acid in water were added for improving the chromatographic conditions. The plate was centrifuged (46000 g, 30 min) and supernatants were taken and analyzed in a UPLC-MS/MS (Xevo-TQD, Waters) by employing a BEH C18 column and an isocratic gradient of 0.1% formic acid in water:0.1% formic acid acetonitrile (60:40). The metabolic stability of the compounds was calculated from the logarithm of the remaining compounds at each of the time points studied.

CD1 mice = assay: Seizure assay (pentylenetetrazole, PTZ test); format: in vivo, mouse; conditions: 5 mg/kg by gavage 1 h prior to PTZ 85 mg/Kg s.c., monitored 30 min
Method: Test compounds were dissolved in 20% hydroxypropyl-beta-cyclodextrin and concentration was calculated according to the animal weigh to reach the precise dose. Animals were housed in standard care facilities with a 12 hours light-dark cycle with free access to water and food.
To investigate the ability of compounds to cross the blood-brain barrier (BBB), a standard acute test involving the administration of pro-convulsant pentylenetetrazole (PTZ) was employed [Inceoglu et al, PLoS ONE, 2013, 8(12), e80922; WO 2015/148954 A1]. In the test, PTZ was administered at 85 mg/Kg by subcutaneous route, time to onset of first clonic seizure, average of clonic seizures, tonic seizure latency and lethality were monitored for 30 min. Vehicles or compounds were administered by gavage at 5 mg/kg 1 h prior to pro-convulsant.

Structure (SMILES): CC(=O)c1ccc(N2CCC(NC(=O)NC34CC5CC(C)(CC(C3)c3ccccc35)C4)CC2)cc1 [Example C12, 1-(1-(4-acetylphenyl)piperidin-4-yl)-3-(9-methyl-5,6,8,9,10,11-hexahydro-7H-5,9:7,11-dimethanobenzo[9]annulen-7-yl)urea]
- IC50 (human sEH): 2900 pM
- Microsomal stability (% remanent) [1]: 0.7%

Structure (SMILES): CC12CC3CC(NC(=O)NC4C[C@H]5CC[C@@H](C4)N5Cc4ccccc4)(CC(C1)c1ccccc13)C2 (stereo partly drawn) [Example C2, 1-((1R,3s,5S)-8-benzyl-8-azabicyclo[3.2.1]octan-3-yl)-3-(9-methyl-5,6,8,9,10,11-hexahydro-7H-5,9:7,11-dimethanobenzo[9]annulen-7-yl)urea]
- IC50 (human sEH): 4700 pM
- Microsomal stability (% remanent) [1]: 0.1%

Structure (SMILES): CC(=O)N1CCC(NC(=O)NC23CC4CC(C)(CC(C2)c2ccccc24)C3)CC1 [Example C1, 1-(1-acetylpiperidin-4-yl)-3-(9-methyl-5,6,8,9,10,11-hexahydro-7H-5,9:7,11-dimethanobenzo[9]annulen-7-yl)urea]
- Microsomal stability (% remanent) [1]: 1%

Structure (SMILES): CC(=O)N1CCC(NC(=O)NC23CC4CC(C)(CC(C2)c2cc(F)ccc24)C3)CC1 (centres unmarked) [Example C8, 1-(1-acetylpiperidin-4-yl)-3-(2-fluoro-9-methyl-5,6,8,9,10,11-hexahydro-7H-5,9:7,11-dimethanobenzo[9]annulen-7-yl)urea]
- IC50 (human sEH): 900 pM
- Microsomal stability (% remanent) [1]: 22%

Structure (SMILES): COc1cc2c(cc1OC)C1CC3(Cl)CC2CC(NC(=O)NC2CCN(C(=O)C4CCOCC4)CC2)(C1)C3 [Example 6, 1-(9-chloro-2,3-dimethoxy-5,6,8,9,10,11-hexahydro-7H-5,9:7,11-dimethanobenzo[9]annulen-7-yl)-3-(1-(tetrahydro-2H-pyran-4-carbonyl)piperidin-4-yl)urea]
- IC50 (human sEH): 400 pM
- melting point: 147 to 150 °C
- Microsomal stability (% remanent) [1]: 42%

Structure (SMILES): COc1ccc2c(c1)C1CC3(C)CC2CC(NC(=O)NC2CCN(C(C)=O)CC2)(C1)C3 (centres unmarked) [Example C10, 1-(1-acetylpiperidin-4-yl)-3-(2-methoxy-9-methyl-5,6,8,9,10,11-hexahydro-7H-5,9:7,11-dimethanobenzo[9]annulen-7-yl)urea]
- IC50 (human sEH): 1200 pM
- Microsomal stability (% remanent) [1]: 33%

Structure (SMILES): COC(=O)c1ccc(C(=O)N2CCC(NC(=O)NC34CC5CC(Cl)(CC(C3)c3ccccc35)C4)CC2)cc1 [Example 15, methyl 4-(4-(3-(9-chloro-5,6,8,9,10,11-hexahydro-7H-5,9:7,11-dimethanobenzo[9]annulen-7-yl)ureido)piperidine-1-carbonyl)benzoate]
- melting point: 128 to 129 °C

Structure (SMILES): CCC(=O)N1CCC(NC(=O)Nc2ccc(OC(F)(F)F)cc2)CC1 [TPPU, N-[1-(1-Oxopropyl)-4-piperidinyl]-N′-[4-(trifluoromethoxy)phenyl]urea, reference compound]
- Average clonic seizure (CD1 mice): 3.67
- Mean time to clonic seizure latency (CD1 mice): 605.33 s
- Protected from tonic/total (Mortality) (CD1 mice): 5/6****

Structure (SMILES): O=C(NC1CCN(C(=O)c2ccc(C(=O)O)cc2)CC1)NC12CC3CC(Cl)(CC(C1)c1ccccc13)C2 [Example 16, 4-(4-(3-(9-chloro-5,6,8,9,10,11-hexahydro-7H-5,9:7,11-dimethanobenzo[9]annulen-7-yl)ureido)piperidine-1-carbonyl)benzoic acid]
- IC50 (human sEH): 400 pM
- melting point: 200 °C (dec.)
- Microsomal stability (% remanent) [1]: 88%

Structure (SMILES): O=C(NC1CCN(c2ccc(C(=O)O)cc2)CC1)NC12CC3CC(F)(CC(C1)c1ccccc13)C2 [Example 13, 4-(4-(3-(9-fluoro-5,6,8,9,10,11-hexahydro-7H-5,9:7,11-dimethanobenzo[9]annulen-7-yl)ureido)piperidin-1-yl)benzoic acid]
- IC50 (human sEH): 500 pM
- melting point: 267 to 268 °C
- Microsomal stability (% remanent) [1]: 100%

Structure (SMILES): O=C(NC12CC3CC(F)(CC(C1)c1ccccc13)C2)N[C@H]1CC[C@H](Oc2ccc(C(=O)O)cc2)CC1 [Example 1, 4-[((1r,4r)-4-(3-(9-fluoro-5,6,8,9,10,11-hexahydro-7H-5,9:7,11-dimethanobenzo[9]annulen-7-yl)ureido)cyclohexyl)oxy]benzoic acid]
- IC50 (human sEH): 500 pM
- Microsomal stability (% remanent) [1]: 77%

Structure (SMILES): COc1cc2c(cc1OC)C1CC3(F)CC2CC(NC(=O)NC2CCN(C(=O)C4CCOCC4)CC2)(C1)C3 [Example 5, 1-(9-fluoro-2,3-dimethoxy-5,6,8,9,10,11-hexahydro-7H-5,9:7,11-dimethanobenzo[9]annulen-7-yl)-3-(1-(tetrahydro-2H-pyran-4-carbonyl)piperidin-4-yl)urea]
- IC50 (human sEH): 600 pM
- Microsomal stability (% remanent) [1]: 100%

Structure (SMILES): CC12CC3CC(NC(=O)Nc4ccc(F)c(F)c4F)(CC(C1)c1ccccc13)C2 [Example C4, 1-(9-methyl-6,7,8,9,10,11-hexahydro-5H-5,9:7,11-dimethanobenzo[9]annulen-7-yl)-3-(2,3,4-trifluorophenyl)urea]
- IC50 (human sEH): 1100 pM
- Microsomal stability (% remanent) [1]: 7%

Structure (SMILES): CC(=O)N1CCC(NC(=O)NC23CC4CC(C)(CC(C2)c2c(F)cccc24)C3)CC1 (centres unmarked) [Example C9, 1-(1-acetylpiperidin-4-yl)-3-(1-fluoro-9-methyl-5,6,8,9,10,11-hexahydro-7H-5,9:7,11-dimethanobenzo[9]annulen-7-yl)urea]
- IC50 (human sEH): 900 pM
- Microsomal stability (% remanent) [1]: 16%

Structure (SMILES): O=C(NC1CCN(c2ccc(C(=O)O)cc2)CC1)NC12CC3CC(Cl)(CC(C1)c1ccccc13)C2 [Example 14, 4-(4-(3-(9-chloro-5,6,8,9,10,11-hexahydro-7H-5,9:7,11-dimethanobenzo[9]annulen-7-yl)ureido)piperidin-1-yl)benzoic acid]
- IC50 (human sEH): 400 pM
- melting point: 226 to 227 °C
- Microsomal stability (% remanent) [1]: 99%

Structure (SMILES): CC12CC3CC(NC(=O)NC4CCN(Cc5ccccc5)CC4)(CC(C1)c1ccccc13)C2 [Example C5, 1-(1-benzylpiperidin-4-yl)-3-(9-methyl-5,6,8,9,10,11-hexahydro-7H-5,9:7,11-dimethanobenzo[9]annulen-7-yl)urea]
- IC50 (human sEH): 1500 pM
- Microsomal stability (% remanent) [1]: 0.1%
